In BigSolDB 2.1:

CC(=O)S[C@@H]1CC2=CC(=O)CC[C@]2(C)[C@H]2CC[C@@]3(C)[C@@H](CC[C@@]34CCC(=O)O4)[C@H]12
Conditions | solubility (mole fraction)
in ethanol, 278.75 K | 0.0017
in ethanol, 283.55 K | 0.00197
in ethanol, 288.45 K | 0.00238
in ethanol, 293.45 K | 0.0031
in ethanol, 298.35 K | 0.00394
in ethanol, 303.15 K | 0.00491
in ethanol, 308.25 K | 0.00606
in ethanol, 313.15 K | 0.00771
in ethanol, 317.95 K | 0.00975
in ethyl acetate, 278.85 K | 0.0179
in ethyl acetate, 283.65 K | 0.0198
in ethyl acetate, 288.55 K | 0.0226
in ethyl acetate, 293.45 K | 0.0246
in ethyl acetate, 298.3 K | 0.0281
in ethyl acetate, 303.15 K | 0.0314
in ethyl acetate, 308.1 K | 0.0359
in ethyl acetate, 312.95 K | 0.0412
in ethyl acetate, 317.75 K | 0.0456
in isopropanol, 278.45 K | 0.000994
in isopropanol, 283.55 K | 0.00128
in isopropanol, 288.4 K | 0.00168
in isopropanol, 293.25 K | 0.00208
in isopropanol, 298.2 K | 0.00265
in isopropanol, 303.05 K | 0.00343
in isopropanol, 307.95 K | 0.00445
in isopropanol, 312.9 K | 0.00572
in isopropanol, 317.55 K | 0.00731
in methanol, 278.85 K | 0.000202
in methanol, 283.65 K | 0.000267
in methanol, 288.55 K | 0.000356
in methanol, 293.45 K | 0.00041
in methanol, 298.3 K | 0.000612
in methanol, 303.15 K | 0.000813
in methanol, 308.1 K | 0.00104
in methanol, 312.95 K | 0.00139
in methanol, 317.75 K | 0.00182
in n-butanol, 278.95 K | 0.00194
in n-butanol, 283.65 K | 0.00237
in n-butanol, 288.55 K | 0.00309
in n-butanol, 293.45 K | 0.00396
in n-butanol, 298.25 K | 0.00469
in n-butanol, 303.05 K | 0.00581
in n-butanol, 308.15 K | 0.00732
in n-butanol, 312.95 K | 0.00898
in n-butanol, 317.65 K | 0.011
in n-propanol, 278.4 K | 0.00228
in n-propanol, 283.65 K | 0.0026
in n-propanol, 288.35 K | 0.00326
in n-propanol, 293.25 K | 0.00395
in n-propanol, 298.15 K | 0.00488
in n-propanol, 303.05 K | 0.00606
in n-propanol, 307.95 K | 0.00756
in n-propanol, 312.9 K | 0.00957
in n-propanol, 318.35 K | 0.0121
